Experiments:
endogenous TMEM16A = assay: Iodide quenching of YFP in HT29 cells stimulated with ionomycin; format: cell-based
Procedure: FIG. 15: Inhibition of TMEM16A and TMEM16F by niclosamide. • A) TMEM16A whole cell currents in overexpressing HEK293 cells. […] Rate of YFP quenching (arbitrary units (au/second), when applying 20 mM iodide to the extracellular bath solution. HT29 cells stably overexpressing YFP were stimulated with […] ionomycin. 100,000 cells were seeded/well. Mean±SEM; (number of experiments) #significant inhibition when compared to the absence of the inhibitor (p<0.05; unpaired t-test); *significant activation by UTP (paired t-test).
Similar to TMEM16A, also overexpressed TMEM16F was inhibited by niclosamide (FIG. 15D). The effect of niclosamide was also examined on endogenous TMEM16A expressed in HT29 colonic carcinoma cells, which were stably transfected with iodide-sensitive yellow fluorescent protein (YFP). TMEM16A was activated by ionomycin and TMEM16A currents were measured as iodide quenching.

[1] = tested on: Calu3 airway epithelial cells; assay: LPS-induced IL-8 release by Calu3 cells (ELISA); format: cell-based, human; conditions: Calu3 cells exposed to LPS for 48 hrs
Procedure: Mouse models were performed according to the previous example. For investigating mucus, IL-8 release, and leukocytes, tissues were fixed using 4% paraformaldehyde (PFA), 0.2% picric acid and 3.4% sucrose in PBS and washed in methanol before embedding in paraffin. Mucus was analyzed using standard Periodic acid-Schiff (PAS) or alcian blue staining. MUC5AC was stained using anti-MUC5AC mouse antibody (1:200, Abcam, ab3649) and a secondary antibody conjugated with Alexa488 (Life Technologies, A-21206). Nuclei were stained with Hoe33342 (0.1 μg/ml PBS, Aplichem, Darmstadt, Germany). Quantikine ELISA kits (R&D systems) were used to measure secretion of the cytokine IL-8 by Calu3 cells.
Calu3 airway epithelial cells were exposed to LPS for 48 hrs and the release of the neutrophil attractor interleukin 8 (IL-8) was measured. […] Upon stimulation with the Th2 cytokine IL-13, Calu3 cells produced MUC5AC. […] Taken together, airway epithelial knockout of TMEM16A caused a defect in mucus secretion, while mucus production was retained (FIG. 16C).

colon = assay: Niclosamide applied in vivo (ip or gavage), then colon perfusion and PAS staining; set-up: species or system mouse; conditions: for ATP-induced release of mucus: three days before perfusion, 100 μM ATP
Procedure: FIG. 18: Effect of niclosamide on intestinal mucus release. • A) Acute mucus secretion in excised wt colon activated by methacholine or ATP, respectively, and inhibition by acute perfusion with niclosamide (niclosamide; 10 μM). • B-D) Effect of intraperitoneal injection of niclosamide (20 mg/kg/day) on PAS staining (B,C) and acute mucus discharge induced by perfusion with 100 μM ATP (D). • E-G) Effect of application of niclosamide by gavage (20 mg/kg/day) on PAS staining (E,F) and acute mucus discharge induced by perfusion with 100 μM ATP (G). Mean±SEM; #significant difference when compared to -niclosamide (unpaired t-test); (n) number of perfused colons and PAS stainings analyzed, respectively. Bars indicate 50 μm.
It was examined whether niclosamide inhibits intestinal mucus secretion. To this end, niclosamide was added to the perfusate. […] Niclosamide was applied in vivo by intraperitoneal (ip) injection, or was applied orally by gavage three days before intestinal perfusion. […] TMEM16F plays a crucial role for intracellular Ca^2+ signaling. The present inventors detected reduced Ca^2+ increase upon ATP-stimulation of freshly isolated crypt cells from Vil1-Cre TMEM16F^flox/flox mice. In contrast, CCH-induced Ca^2+ rise was not affected. […] Increase in FM4-64 fluorescence in the plasma membrane is a marker for membrane exocytosis. The present inventors detected that ATP-stimulation (but not cholinergic stimulation) of HEK293 cells expressing TMEM16F induced FM4-64 fluorescence, i.e. exocytosis.

TMEM16A = molecular target: T1, TMEM16A (Homo sapiens, UniProt Q5XXA6); set-up: expressed in transfected cells; host or cells: HEK293 cells; conditions: Miner et al. [3]; cited from earlier work
T1 sequence (Q5XXA6 1-986): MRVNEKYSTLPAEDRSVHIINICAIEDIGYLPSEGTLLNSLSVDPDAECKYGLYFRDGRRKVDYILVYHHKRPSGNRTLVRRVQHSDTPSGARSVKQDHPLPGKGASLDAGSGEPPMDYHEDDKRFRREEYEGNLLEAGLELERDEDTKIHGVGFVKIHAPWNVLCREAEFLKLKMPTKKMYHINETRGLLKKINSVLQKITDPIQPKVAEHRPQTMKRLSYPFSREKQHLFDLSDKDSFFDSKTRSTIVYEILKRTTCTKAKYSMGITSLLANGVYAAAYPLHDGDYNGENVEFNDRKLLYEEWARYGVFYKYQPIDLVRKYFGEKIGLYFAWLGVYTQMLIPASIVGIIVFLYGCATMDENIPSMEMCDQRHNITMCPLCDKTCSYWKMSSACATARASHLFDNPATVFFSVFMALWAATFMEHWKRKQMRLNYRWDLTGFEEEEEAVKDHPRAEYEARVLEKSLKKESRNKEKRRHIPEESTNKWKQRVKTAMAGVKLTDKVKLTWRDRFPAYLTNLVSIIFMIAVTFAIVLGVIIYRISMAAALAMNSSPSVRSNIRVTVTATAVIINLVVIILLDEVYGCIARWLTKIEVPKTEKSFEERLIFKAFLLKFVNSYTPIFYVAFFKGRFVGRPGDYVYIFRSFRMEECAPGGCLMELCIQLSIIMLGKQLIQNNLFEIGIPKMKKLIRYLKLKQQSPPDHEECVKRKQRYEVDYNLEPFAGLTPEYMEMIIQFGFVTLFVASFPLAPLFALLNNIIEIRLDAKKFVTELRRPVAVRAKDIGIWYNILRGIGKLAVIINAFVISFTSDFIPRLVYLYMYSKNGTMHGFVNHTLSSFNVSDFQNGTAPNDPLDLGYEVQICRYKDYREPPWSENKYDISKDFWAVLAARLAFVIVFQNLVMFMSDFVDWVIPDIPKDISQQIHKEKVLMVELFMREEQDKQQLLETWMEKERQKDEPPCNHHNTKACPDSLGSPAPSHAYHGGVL

## O=C(Nc1ccc([N+](=O)[O-])cc1Cl)c1cc(Cl)ccc1O [niclosamide, 5-chloro-N-(2-chloro-4-nitrophenyl)-2-hydroxybenzamide]
Endogenous TMEM16A; HT29 YFP iodide quenching
  potency compared with CaCCinhAO1 or dichlorophen: more potent
Endogenous TMEM16A; HT29 cells stably expressing YFP, ionomycin, 20 mM iodide
  inhibition of endogenous TMEM16A (iodide quenching of YFP): low nanomolar range
[1]
  IL-8 release: clearly inhibited
colon; intraperitoneal injection 20 mg/kg/day
  ATP-induced release of mucus: completely inhibited
colon; ip or oral niclosamide
  mucus accumulation in goblet cells (PAS staining): did not accumulate
colon; oral by gavage 20 mg/kg/day
  ATP-induced release of mucus: completely inhibited
TMEM16A
  TMEM16A inhibition: inhibitors of TMEM16A

From patent US20210283110A1, “COMPOUND FOR USE IN THE TREATMENT OF A DISEASE CHARACTERIZED BY DYSREGULATED MUCUS PRODUCTION AND/OR SECRETION” (UNIVERSITÄT REGENSBURG, priority 2018, published 2021)
